{"source": "patent US11865126B2", "about": "“Method for treating anxiety disorders, headache disorders, and eating disorders with psilocybin” (priority 2019, dated 2024)", "test_system": "healthy subjects", "assay": "Life Changes Inventory (LCI)", "format": "in vivo, human", "description": "In some embodiments, the Life Changes Inventory (LCI) questionnaire is utilized to evaluate the safety and/or efficacy of psilocybin. The LCI is designed as a questionnaire to investigate those variables present in the day-to-day experience of adults that might relate either to stability or decline of intellectual ability.\nThe following list of outcome measures are non-exhaustive. • a. The short-term change from Baseline (Day −1 [Visit 2]) to Day 7 (Visit 5) in cognitive measures of attention, spatial and working memory and executive function was measured by a composite score of the CANTAB Panel (Spatial Working Memory [SWM], Rapid Visual Information Processing [RVP], Paired Associates Learning [PAL]). • b. The short-term change from Baseline (Day −1 [Visit 2]) to Day 7 (Visit 5) in Social Cognition Panel scales (Pictorial Empathy Test [PET], Reading the Mind in the Eyes Test [RMET], Toronto Empathy Questionnaire [TEQ], Social Value Orientation [SVO], Scale of Social Responsibility [SSR]). • c. The change from Baseline (Day −1 [Visit 2]) to Day 28 (Visit 6) in cognitive measures of attention, spatial and working memory and executive function as measured by a composite score of the CANTAB Panel (SWM, RVP, PAL). • d. The long-term change from Baseline (Day −1 [Visit 2]) to Day 84 (Visit 7) in Social Cognition Panel scales (PET, RMET, TEQ, SVO, SSR). • e. Dose-related differences between cognitive effects of psilocybin at Baseline (Day −1 [Visit 2]), Day 7 (Visit 5) and Day 28 (Visit 6), as measured by a composite score of the CANTAB Panel (SWM, RVP, PAL). • f. Dose-related differences between psychological effects of psilocybin at Baseline (Day −1 [Visit 2]), Day 7 (Visit 5) and Day 84 (Visit 7), as measured by Social Cognition Panel scales (PET, RMET, TEQ, SVO, SSR). • g. Differences in cognitive effects of psilocybin between psilocybin-naïve and experienced subjects at Baseline (Day −1 [Visit 2]), Day 7 (Visit 5) and Day 28 (Visit 6), as measured by a composite score of the CANTAB Panel (SWM, RVP, PAL). • h. Differences in Positive and Negative Affect Schedule (PANAS) after study drug administration on Day 0 (Visit 3). • i. Differences between psilocybin and placebo in the Emotion Recognition Test (ERT), Intra-Extra Dimensional Set Shift (IED), One Touch Stockings (OTS), Verbal Fluency and Digit Span Forward at Day 7 (Visit 5). • j. A composite score of the CANTAB Panel, including the following tests: • i. Spatial Working Memory (SWM) (performed at Visit 2, Visit 5, and Visit 6). • ii. Rapid Visual Information Processing (RVP) (performed at Visit 2, Visit 5, and Visit 6). • iii. Paired Associates Learning (PAL) (performed at Visit 2, Visit 5, and Visit 6). • k. Cognitive Flexibility Panel • i. Emotion Recognition Task (ERT) (performed at Visit 5). • ii. Intra-Extra Dimensional Set Shift (IED) (performed at Visit 5). • iii. One Touch Stockings (OTS) (performed at Visit 5). • iv. Verbal Fluency (performed at Visit 5). • v. Digit Span Forward (performed at Visit 5). • l. Five Dimension Altered States of Consciousness questionnaire (5D-ASC) (performed at Visit 3). • m. PANAS (performed at Visit 2 and Visit 3). • n. NEO-Five Factor Inventory (NEO-FFI) (performed at Visit 2, Visit 5, and Visit 7). • o. Symptom Checklist-90 item (SCL-90) (performed at Visit 2, Visit 5, and Visit 7). • p. Life Changes Inventory (LCI): The LCI measures changes in attitudes and values after near-death experiences often used to evaluate personal transformation following spiritually oriented experiences and practices. (performed at Visit 5 and Visit 7). • q. Social Cognition Panel scales • i. Pictorial Empathy Test (PET) (performed at Visit 2, Visit 5, and Visit 7). • ii. Reading the Mind in the Eyes Test (RMET) (performed at Visit 2, Visit 5, and Visit 7). • iii. Social Value Orientation (SVO) (performed at Visit 2, Visit 5, and Visit 7). • iv. Toronto Empathy Questionnaire (TEQ) (performed at Visit 2, Visit 5, and Visit 7). • v. […]"}
{"smiles": "CN(C)CCc1c[nH]c2cccc(OP(=O)(O)O)c12", "note": "[psilocybin]", "values": [{"measurement": "LCI Self-Acceptance Scores (LS mean)", "setting": "10 mg psilocybin, Day 7 (Example 19)", "result": 0.8}, {"measurement": "LCI Self-Acceptance Scores (LS mean)", "setting": "10 mg psilocybin, Day 84 (Example 19)", "result": 0.6}, {"measurement": "LCI Self-Acceptance Scores (LS mean)", "setting": "25 mg psilocybin, Day 7 (Example 19)", "result": 0.6}, {"measurement": "LCI Self-Acceptance Scores (LS mean)", "setting": "25 mg psilocybin, Day 84 (Example 19)", "result": 0.6}, {"measurement": "LCI - absolute change, difference Psilocybin 10 mg - Placebo", "setting": "Day 7", "result": 0.4}, {"measurement": "LCI - absolute change, difference Psilocybin 25 mg - Placebo", "setting": "Day 7", "result": 0.3}, {"measurement": "LCI - absolute change, difference Psilocybin (25 mg-10 mg)", "setting": "Day 7", "result": "−0.1"}, {"measurement": "LCI appreciation for life, difference Psilocybin 10 mg - Placebo", "setting": "Day 7", "result": 0.6}, {"measurement": "LCI appreciation for life, difference Psilocybin 25 mg - Placebo", "setting": "Day 7", "result": 0.5}, {"measurement": "LCI appreciation for life, difference Psilocybin (25 mg-10 mg)", "setting": "Day 7", "result": "−0.2"}, {"measurement": "LCI appreciation of death, difference Psilocybin 10 mg - Placebo", "setting": "Day 7", "result": 0.1}, {"measurement": "LCI appreciation of death, difference Psilocybin 25 mg - Placebo", "setting": "Day 7", "result": 0.1}, {"measurement": "LCI appreciation of death, difference Psilocybin (25 mg-10 mg)", "setting": "Day 7", "result": "−0.0"}, {"measurement": "LCI concern for others, difference Psilocybin 10 mg - Placebo", "setting": "Day 7", "result": 0.4}, {"measurement": "LCI concern for others, difference Psilocybin 25 mg - Placebo", "setting": "Day 7", "result": 0.4}, {"measurement": "LCI concern for others, difference Psilocybin (25 mg-10 mg)", "setting": "Day 7", "result": 0.0}, {"measurement": "LCI concern for worldly achievement, difference Psilocybin 10 mg - Placebo", "setting": "Day 7", "result": "−0.2"}, {"measurement": "LCI concern for worldly achievement, difference Psilocybin 25 mg - Placebo", "setting": "Day 7", "result": "−0.1"}, {"measurement": "LCI concern for worldly achievement, difference Psilocybin (25 mg-10 mg)", "setting": "Day 7", "result": 0.1}, {"measurement": "LCI concern social, difference Psilocybin 10 mg - Placebo", "setting": "Day 7", "result": 0.1}, {"measurement": "LCI concern social, difference Psilocybin 25 mg - Placebo", "setting": "Day 7", "result": 0.2}, {"measurement": "LCI concern social, difference Psilocybin (25 mg-10 mg)", "setting": "Day 7", "result": 0.1}, {"measurement": "LCI quest for meaning, difference Psilocybin 10 mg - Placebo", "setting": "Day 7", "result": 0.4}, {"measurement": "LCI quest for meaning, difference Psilocybin 25 mg - Placebo", "setting": "Day 7", "result": 0.4}, {"measurement": "LCI quest for meaning, difference Psilocybin (25 mg-10 mg)", "setting": "Day 7", "result": 0.0}, {"measurement": "LCI religiousness, difference Psilocybin 10 mg - Placebo", "setting": "Day 7", "result": "−0.1"}, {"measurement": "LCI religiousness, difference Psilocybin 25 mg - Placebo", "setting": "Day 7", "result": 0.0}, {"measurement": "LCI religiousness, difference Psilocybin (25 mg-10 mg)", "setting": "Day 7", "result": 0.1}, {"measurement": "LCI self-acceptance, difference Psilocybin 10 mg - Placebo", "setting": "Day 7", "result": 0.7}, {"measurement": "LCI self-acceptance, difference Psilocybin 25 mg - Placebo", "setting": "Day 7", "result": 0.5}, {"measurement": "LCI self-acceptance, difference Psilocybin (25 mg-10 mg)", "setting": "Day 7", "result": "−0.1"}, {"measurement": "LCI spirituality, difference Psilocybin 10 mg - Placebo", "setting": "Day 7", "result": 0.3}, {"measurement": "LCI spirituality, difference Psilocybin 25 mg - Placebo", "setting": "Day 7", "result": 0.2}, {"measurement": "LCI spirituality, difference Psilocybin (25 mg-10 mg)", "setting": "Day 7", "result": "−0.1"}, {"measurement": "LCI - absolute change, difference Psilocybin 10 mg - Placebo", "setting": "Day 84", "result": 0.4}, {"measurement": "LCI - absolute change, difference Psilocybin 25 mg - Placebo", "setting": "Day 84", "result": 0.4}, {"measurement": "LCI - absolute change, difference Psilocybin (25 mg-10 mg)", "setting": "Day 84", "result": "−0.0"}, {"measurement": "LCI appreciation for life, difference Psilocybin 10 mg - Placebo", "setting": "Day 84", "result": 0.6}, {"measurement": "LCI appreciation for life, difference Psilocybin 25 mg - Placebo", "setting": "Day 84", "result": 0.5}, {"measurement": "LCI appreciation for life, difference Psilocybin (25 mg-10 mg)", "setting": "Day 84", "result": "−0.1"}, {"measurement": "LCI appreciation of death, difference Psilocybin 10 mg - Placebo", "setting": "Day 84", "result": 0.2}, {"measurement": "LCI appreciation of death, difference Psilocybin 25 mg - Placebo", "setting": "Day 84", "result": 0.2}, {"measurement": "LCI appreciation of death, difference Psilocybin (25 mg-10 mg)", "setting": "Day 84", "result": 0.0}, {"measurement": "LCI concern for others, difference Psilocybin 10 mg - Placebo", "setting": "Day 84", "result": 0.4}, {"measurement": "LCI concern for others, difference Psilocybin 25 mg - Placebo", "setting": "Day 84", "result": 0.5}, {"measurement": "LCI concern for others, difference Psilocybin (25 mg-10 mg)", "setting": "Day 84", "result": 0.1}, {"measurement": "LCI concern for worldly achievement, difference Psilocybin 10 mg - Placebo", "setting": "Day 84", "result": "−0.2"}, {"measurement": "LCI concern for worldly achievement, difference Psilocybin 25 mg - Placebo", "setting": "Day 84", "result": "−0.1"}, {"measurement": "LCI concern for worldly achievement, difference Psilocybin (25 mg-10 mg)", "setting": "Day 84", "result": 0.1}, {"measurement": "LCI concern social, difference Psilocybin 10 mg - Placebo", "setting": "Day 84", "result": 0.1}, {"measurement": "LCI concern social, difference Psilocybin 25 mg - Placebo", "setting": "Day 84", "result": 0.1}, {"measurement": "LCI concern social, difference Psilocybin (25 mg-10 mg)", "setting": "Day 84", "result": 0.0}, {"measurement": "LCI quest for meaning, difference Psilocybin 10 mg - Placebo", "setting": "Day 84", "result": 0.4}, {"measurement": "LCI quest for meaning, difference Psilocybin 25 mg - Placebo", "setting": "Day 84", "result": 0.4}, {"measurement": "LCI quest for meaning, difference Psilocybin (25 mg-10 mg)", "setting": "Day 84", "result": "−0.0"}, {"measurement": "LCI religiousness, difference Psilocybin 10 mg - Placebo", "setting": "Day 84", "result": "−0.0"}, {"measurement": "LCI religiousness, difference Psilocybin 25 mg - Placebo", "setting": "Day 84", "result": 0.0}, {"measurement": "LCI religiousness, difference Psilocybin (25 mg-10 mg)", "setting": "Day 84", "result": 0.1}, {"measurement": "LCI self-acceptance, difference Psilocybin 10 mg - Placebo", "setting": "Day 84", "result": 0.5}, {"measurement": "LCI self-acceptance, difference Psilocybin 25 mg - Placebo", "setting": "Day 84", "result": 0.5}, {"measurement": "LCI self-acceptance, difference Psilocybin (25 mg-10 mg)", "setting": "Day 84", "result": 0.0}, {"measurement": "LCI spirituality, difference Psilocybin 10 mg - Placebo", "setting": "Day 84", "result": 0.4}, {"measurement": "LCI spirituality, difference Psilocybin 25 mg - Placebo", "setting": "Day 84", "result": 0.4}, {"measurement": "LCI spirituality, difference Psilocybin (25 mg-10 mg)", "setting": "Day 84", "result": "−0.0"}]}
